Data: US10961256B2, “PRMT5 inhibitors” (priority 2016, dated 2021)

Legend:
[1] = test system: symmetrical dimethylation of arginine (Di-Methyl Histone H4 Arginine 3) in TE11 cells; experiment: cells; conditions: Homo sapiens, TE-11, 72 h
Description: Compounds of the invention may be tested for potency to inhibit symmetrical dimethylation of arginine in the following assay:
The cell line TE11 was seeded at a density of 6,000 cells per well in 96 well optical quality tissue culture plates in DME medium and 10% foetal bovine serum, and allowed to adhere for 5 hours under standard culture conditions (37 degree Celsius, 5% CO2). […] After incubation for 72 hours, the cells were fixed with 3.7% formaldehyde in PBS for 30 minutes at room temperature, washed with phosphate buffer saline and blocked with Odyssey blocking buffer (LI-COR, Lincoln, Nebr.). Rabbit anti-Di-Methyl Histone H4 Arginine 3 specific antibody (Epigentek) in Odyssey blocking buffer was added and incubated for 14 hours at 4 degree Celsius.

[2] = biological target: Full-length PRMT5 enzyme co-expressed with His6-MEP50 (Homo sapiens (Human), UniProt O14744); experiment: PRMT5 Biochemical Assay; conditions: histone H4 derived peptide substrate, Transcreener EPIGEN methyltransferase assay, 4 hours at 37 degree Celsius
Description: Compounds of the invention may be tested for in vitro activity in the following assay: A histone H4 derived peptide is used as substrate (amino acid sequence: […]NH2). Full-length PRMT5 enzyme (NCBI Reference sequence NP_006100.2) was co-expressed with His6-MEP50 in insect cells and purified via Nickel immobilized metal affinity and gel filtration chromatography (“the enzyme”).
The 6 μL reactions are run in Greiner brand black 384-well low volume assay plates. All reactions contained assay buffer (phosphate buffered saline, 0.01% (v/v) Tween-20, 0.01% (w/v) albumin from chicken egg white, 1 mM Dithiothreitol, 1 μM peptide substrate, 1 μM S-Adenosyl methionine, and 15 ng/reaction enzyme, with the enzyme being omitted from negative control reactions. Compounds were added in a volume of 100 nL from dilution series prepared in DMSO, positive and negative control reactions receiving the same volume DMSO without compound. The plates were sealed with adhesive seals and incubated for 4 hours at 37 degree Celsius. Reaction progress was measured using the Transcreener™ EPIGEN methyltransferase assay (BellBrook Labs, Madison, Wis.) as recommended by the manufacturer. To each reaction 2 μL detection mix were added, containing coupling enzymes, fluorescence polarisation tracer, and AMP antibody. Plates were incubated for 90 minutes before being read on a PerkinElmer EnVision™ plate reader in fluorescence polarisation mode.

Sequence of Full-length PRMT5 enzyme co-expressed with His6-MEP50 (O14744 whole entry): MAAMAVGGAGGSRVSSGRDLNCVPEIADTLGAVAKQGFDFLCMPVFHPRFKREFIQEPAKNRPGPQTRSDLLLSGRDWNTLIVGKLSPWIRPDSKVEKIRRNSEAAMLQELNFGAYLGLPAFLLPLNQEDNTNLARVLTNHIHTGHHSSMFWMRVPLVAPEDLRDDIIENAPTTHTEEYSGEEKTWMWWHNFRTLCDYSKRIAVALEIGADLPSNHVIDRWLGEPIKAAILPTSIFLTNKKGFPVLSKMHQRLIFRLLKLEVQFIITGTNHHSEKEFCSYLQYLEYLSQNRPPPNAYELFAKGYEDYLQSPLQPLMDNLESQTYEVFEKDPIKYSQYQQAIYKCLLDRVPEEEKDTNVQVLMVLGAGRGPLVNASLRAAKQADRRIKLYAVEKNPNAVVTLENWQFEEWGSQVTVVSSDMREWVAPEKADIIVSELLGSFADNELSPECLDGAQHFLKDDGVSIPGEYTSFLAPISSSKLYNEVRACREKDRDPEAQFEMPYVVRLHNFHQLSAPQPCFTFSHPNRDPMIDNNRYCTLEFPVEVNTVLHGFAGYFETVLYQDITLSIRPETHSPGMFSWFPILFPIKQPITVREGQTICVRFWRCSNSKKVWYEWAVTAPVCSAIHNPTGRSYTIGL
Sequence of Full-length PRMT5 enzyme co-expressed with His6-MEP50 (Q9BQA1 whole entry partner): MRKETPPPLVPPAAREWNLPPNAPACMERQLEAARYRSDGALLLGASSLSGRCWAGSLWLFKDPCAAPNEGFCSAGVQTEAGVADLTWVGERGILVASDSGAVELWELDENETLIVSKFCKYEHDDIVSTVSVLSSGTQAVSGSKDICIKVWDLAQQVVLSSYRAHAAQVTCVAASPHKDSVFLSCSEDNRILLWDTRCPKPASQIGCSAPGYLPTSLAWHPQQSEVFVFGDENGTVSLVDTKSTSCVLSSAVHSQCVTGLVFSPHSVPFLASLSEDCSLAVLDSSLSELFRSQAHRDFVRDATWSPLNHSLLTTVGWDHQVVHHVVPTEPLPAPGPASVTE

| SMILES | IC50 [1] [nM] | IC50 [2] [nM] |
| --- | --- | --- |
| CCc1nn(C[C@@H](O)CNC2Cc3ccccc3C2)c(=O)c2ccc(C(=O)N3C4CCC3COC4)cc12 [Compound 3, 6-(3-Oxa-8-azabicyclo[3.2.1]octane-8-carbonyl)-2-((S)-3-((2,3-dihydro-1H-Inden-2-yl)amino)-2-hydroxypropyl)-4-ethylphthalazin-1(2H)-one] | 1.9 | 30 |
| Cc1nn(CC(O)CNC2Cc3ccccc3C2)c(=O)c2ccccc12 (centres unmarked) [Compound 1, 2-(3-((2,3-Dihydro-1H-inden-2-yl)amino)-2-hydroxypropyl)-4-methylphthalazin-1(2H)-one] |  | 4530 |
| Cc1nn(C[C@@H](O)CNC2Cc3ccccc3C2)c(=O)c2ccc(C(=O)N3C4CCC3COC4)cc12 [Compound 2, 6-(3-Oxa-8-azabicyclo[3.2.1]octane-8-carbonyl)-2-((S)-3-((2,3-dihydro-1H-Inden-2-yl)amino)-2-hydroxypropyl)-4-methylphthalazin-1(2H)-one] | 18 | 170 |
